Assay results taken from patent publication US6287840A (Axys Pharmaceuticals, Inc., priority 1999, dated 2001).

Experiments:
[1] = molecular target: T1, Cathepsin L from rat liver (Rattus norvegicus, UniProt P07154); assay: Inhibition of cathepsin L, Z-Phe-Arg-AMC fluorescence progress curves; type: biochemical; conditions: for k/KI (kirr/KI): values without asterisk
T1 construct: Cathepsin L from rat liver; from tissue; host or cells: rat liver
Description: (§1) Stock solutions of the various inhibitors (10 mM) were made in DMF; dilutions were made in the same solvent. Cathepsin L from rat liver, (see Mason et al., Biochem. J. 226:233-241 (1985)) was approximately 1 nM in the assay. The assay buffer contained 50 mM phosphate at pH 6:2, 2.5 mM dithiothreitol (DTT), and 2.5 mM ethylenediaminetetraacetic acid (EDTA). The substrate for cathepsin L was 5 μM Z-Phe-Arg-AMC (carbobenzyloxyphenylalanylarginylaminomethylcoumarin). The assays were initiated at 25° C. by addition of enzyme to 2 mL of assay buffer containing the substrate and the various inhibitors (30-0.001 μM). The increase in fluorescence at 460 nm with excitation at 380 nm was followed with time. Inactivation of cathepsin L was indicated by a downward curve in the increase in fluorescence with time. In the absence of inhibitors, the enzymatic production of free AMC was linear throughout the time course of inactivation examined. Data points were collected over at least 3 half-times of inactivation. The inhibition progress curves were analyzed using non-linear curve fitting software to compute the kobs values. Approximate second-order inactivation constants (kobs /[I]) were calculated for all compounds. For selected inhibitors, plots of 1/[I] vs. 1/kobs yielded the true constants kirr, KI, and kirr/KI and were corrected for the presence of substrate by dividing KI (app.) by (1+[S]/Km).

[2] = molecular target: cruzain, from T. cruzi (Trypanosoma cruzi, UniProt P25779); assay: Inhibition of cruzain, as for cathepsin L; type: biochemical; conditions: for k/KI (kirr/KI): values without asterisk
Description: as §1
Inhibition of cruzain, from T. cruzi, (see Eakin et at., J. Biol. Chem. 268(9): 6115-6118 (1993)) proceeded exactly as for cathepsin L, outlined above, using an enzyme concentration of 1 nM.

[3] = test system: calpain; assay: Inhibition (inactivation) of calpain, Suc-Leu-Tyr-AMC; type: biochemical; conditions: values marked * (or %), pH 7.5, 5 mM CaCl2, 25° C.
Description: The inhibitors were tested against calpain at 1 or 2% as for the other enzymes. The reaction conditions were 50 mM Tris, pH 7.5, 5 mM CaCl2, 2.5 mM DTT, assayed at 25° C. The substrate was 100 μM Suc-Leu-Tyr-AMC.

[4] = test system: Leishmania donovani amastigote infected mouse peritoneal macrophages; assay: In vitro antiprotozoal activity, Leishmania donovani; type: cell-based; conditions: Leishmania donovani, Peritoneal macrophage, read-out: percentage inhibition, L. donovani
Description: (§2) In this table, the in vitro antiprotozoal activities of the indicated compounds were measured as percentage inhibition of Leishmania donovani amastigote infecteda mouse peritoneal macrophages, Trypanosoma cruzi amastigote infected macrophages, and Trypanosoma brucei extracellular bloodstream forms.

[5] = test system: Trypanosoma cruzi amastigote infected macrophages; assay: In vitro antiprotozoal activity, Trypanosoma cruzi; type: cell-based; conditions: Trypanosoma cruzi, Macrophage, read-out: percentage inhibition, T. cruzi
Description: as §2

[6] = test system: Trypanosoma brucei extracellular bloodstream forms; assay: In vitro antiprotozoal activity, Trypanosoma brucei; type: cell-based; conditions: Trypanosoma brucei, read-out: percentage inhibition, T. brucei
Description: as §2

[7] = molecular target: T2, Cathepsin B from human placenta (Homo sapiens, UniProt P07858); assay: Inhibition of cathepsin B, Z-Arg-Arg-AMC fluorescence progress curves; type: biochemical; conditions: for k/KI (kirr/KI): values without asterisk
T2 construct: Cathepsin B from human placenta, obtained from Sigma; purchased Sigma; host or cells: human placenta (tissue)
Description: Stock solutions of the various inhibitors (10 mM) were made in DMF; dilutions were made in the same solvent. Cathepsin B from human placenta, obtained from Sigma, was approximately 10 nM in the assay. The assay buffer contained 50 mM phosphate at pH 6.2, 2.5 mM dithiothreitol (DTT), and 2.5 mM ethylenediaminetetraacetic acid (EDTA). The substrate for cathepsin B was 50 μM Z-Arg-Arg-AMC (carbobenzyloxyarginylarginylaminomethylcoumarin). The assays were initiated at 25° C. by addition of enzyme to 2 mL of assay buffer containing the substrate and the various inhibitors (30-0.001 (μM). The increase in fluorescence at 460 nm with excitation at 380 nm was followed with time, and the assay was linear throughout the range observed. Inactivation of cathepsin B was indicated by a downward curve in the increase in fluorescence with time. In the absence of inhibitors, the enzymatic production of free AMC was linear throughout the time course of inactivation examined. Data points were collected over at least 3 half-times of inactivation, and in duplicate. The inhibition progress curves were analyzed using non-linear curve fitting software to compute the kobs values. Approximate second-order inactivation constants (kobs /[I]) were calculated for all compounds. For selected inhibitors, plots of 1/[I] vs. 1/kobs yielded the true constants kirr, KI, and kirr /KI, and were corrected for the presence of substrate by dividing KI (app.) by {1+[S]/Km }.

[8] = molecular target: T3, Cloned cathepsin S (Homo sapiens, UniProt P25774); assay: Inhibition of cathepsin S, Z-Val-Val-Arg-AMC fluorescence progress curves; type: biochemical; conditions: for k/KI (kirr/KI): values without asterisk
T3 construct: made in house
Description: Stock solutions of the various inhibitors (10 mM) were made in DMF; dilutions were made in the same solvent. Cloned cathepsin S, (see Bromme et al., J. Biol. Chem. 268(&): 4832-4838 (1993)) was less than 1 nM in the assay. The assay buffer contained 100 mM phosphate at pH 6.5, 0.01% Triton, 2.5 mM dithiothreitol (DTT), and 2.5 mM ethylenediaminetetraacetic acid (EDTA). The substrate for cathepsin S was 10 μM Z-Val-Val-Arg-AMC (carbobenzyloxyvalinylvalinylarginylaminomethylcoumarin). The assays were initiated at 25° C. by addition of enzyme to 2 mL of assay buffer containing the substrate and the various inhibitors (30-0.001 μM). The increase in fluorescence at 460 nm with excitation at 380 nm was followed with time. Inactivation of cathepsin S was indicated by a downward curve in the increase in fluorescence with time. In the absence of inhibitors, the enzymatic production of free AMC was linear throughout the time course of inactivation examined. Data points were collected over at least 3 half-times of inactivation. The inhibition progress curves were analyzed using non-linear curve fitting software to compute the kobs values. Approximate second-order inactivation constants (kobs /[I]) were calculated for all compounds. For selected inhibitors, plots of 1/[I] vs. 1/kobs yielded the true constants kirr, KI, and kirr /KI, and were corrected for the presence of substrate by dividing KI (app.) by {1+[S]/Km}.

[9] = values marked *, 25° C., pH 6.2, read-out: kobs /[I]* (approximate second-order inactivation constant)
[10] = values marked *, 25° C., pH 6.2
[11] = values marked *, 25° C., pH 6.5

Sequence of cruzain, from T. cruzi (P25779 123-337 limits assumed): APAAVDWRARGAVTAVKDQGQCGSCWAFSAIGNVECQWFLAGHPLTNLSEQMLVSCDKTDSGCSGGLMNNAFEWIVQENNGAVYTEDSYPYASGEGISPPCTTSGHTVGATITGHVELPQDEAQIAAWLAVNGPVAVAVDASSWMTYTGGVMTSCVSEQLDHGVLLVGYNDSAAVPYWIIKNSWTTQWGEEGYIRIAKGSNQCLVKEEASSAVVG
T3 sequence (P25774 115-331): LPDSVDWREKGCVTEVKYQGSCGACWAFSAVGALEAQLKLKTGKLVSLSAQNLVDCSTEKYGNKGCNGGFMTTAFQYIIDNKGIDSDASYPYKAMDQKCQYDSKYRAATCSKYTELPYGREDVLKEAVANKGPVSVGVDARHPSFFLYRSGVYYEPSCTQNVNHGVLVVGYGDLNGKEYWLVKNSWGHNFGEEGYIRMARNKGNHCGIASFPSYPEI
T1 sequence (P07154 114-288 limits assumed): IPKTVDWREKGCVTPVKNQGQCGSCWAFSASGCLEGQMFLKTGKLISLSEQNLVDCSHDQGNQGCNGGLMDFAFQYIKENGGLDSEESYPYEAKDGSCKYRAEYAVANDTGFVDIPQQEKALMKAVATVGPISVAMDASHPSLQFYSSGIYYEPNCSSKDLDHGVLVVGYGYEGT
T1 sequence (P07154 291-334 limits assumed): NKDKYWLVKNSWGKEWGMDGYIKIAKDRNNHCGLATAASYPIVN

Compound: CC(=O)N[C@@H](CC(C)C)C(=O)N[C@@H](CC(C)C)C(=O)N[C@H](/C=C/S(=O)(=O)c1ccccc1)CCS(C)(=O)=O [Ac-Leu-Leu-Met(O2)VSPh, (S)-(E)-3-(acetylleucylleucyl)amino-5-methylsulfonyl-1-phenylsulfonyl-1-pentene]
- k/KI (kirr/KI) ([1]; 25° C., pH 6.2): 1,500,000 M^-1 sec^-1
- k/KI (kirr/KI) [2]: 104,000 M^-1 sec^-1
- kobs /[I]* [3]: 8,400 M^-1 sec^-1

Compound: C[C@H](NC(=O)OC(C)(C)C)C(=O)N[C@H](/C=C/S(C)(=O)=O)Cc1ccccc1 [Boc-Ala-PheVSMe, (S)-(E)-3-(tert-2butoxycarbonylalanyl)amino-1-methylsulfonyl-4-phenyl-1-butene]
- kobs /[I]* [3]: 60 M⁻¹ s⁻¹

Compound: Cl.NCC(=O)N[C@H](/C=C/S(=O)(=O)c1ccccc1)Cc1ccccc1 [HCl.Gly-Phe-VSPh, (S)-(E)-3-glycylamino-4-phenyl-1-phenylsulfonyl-1-butene hydrochloride]
- kobs /[I]* [3]: < 50 M⁻¹ s⁻¹
- inhibition at 10 µM ([4]; 10 uM): 0%
- inhibition at 30 µM ([4]; 30 uM): 0%
- inhibition at 90 µM ([4]; 90 uM): 4.02%
- inhibition at 3 µM ([5]; 3 uM): 0%
- inhibition at 10 µM ([5]; 10 uM): 0%
- inhibition at 30 µM ([5]; 30 uM): 0.1%
- inhibition at 90 µM ([5]; 90 uM): 0%
- inhibition at 3 µM ([6]; 3 uM): 0%
- inhibition at 10 µM ([6]; 10 uM): 0%
- inhibition at 30 µM ([6]; 30 uM): 0%
- inhibition at 90 µM ([6]; 90 uM): 0%

Compound: COC(=O)CCC(=O)N[C@@H](Cc1ccccc1)C(=O)N[C@H](/C=C/S(=O)(=O)c1ccccc1)CCc1ccccc1 [MeOSuc-Phe-HphVSPh, (S)-(E)-3-(carbomethoxypropionylphenylalanyl)amino-5-phenyl-1-phenylsulfonyl-1-pentene]
- kinact/KI [7, 9]: 870 M⁻¹ s⁻¹
- kinact/KI [1, 9]: 47000 M⁻¹ s⁻¹
- kinact/KI ([8]; values marked *, 25° C., pH 6.5, read-out: kobs /[I]* (approximate second-order inactivation constant)): 740000 M⁻¹ s⁻¹
- kinact/KI ([2]; pH 6.2, values marked *, read-out: kobs /[I]* (approximate second-order inactivation constant)): 34000 M⁻¹ s⁻¹

Compound: O=C(N[C@H](/C=C/S(=O)(=O)c1ccc2ccccc2c1)CCc1ccccc1)C(Cc1ccc2ccccc2c1)NC(=O)N1CCOCC1 (stereo partly drawn) [Mu-Np-HphVSNp, (S)-(E)-3-(4-morpholinecarbonyl-2-naphthylalanyl)amino-1-(2-napthylsulfonyl)-5-phenyl-1-pentene]
- kobs /[I]* (approximate second-order inactivation constant) [7, 10]: 184,000 M^-1 sec^-1
- kirr [1]: 0.14 s⁻¹
- Ki ([1]; corrected for substrate): 18 nM
- k/KI (kirr/KI) ([1]; 25° C., pH 6.2): 9,200,000 M^-1 sec^-1
- kirr [8]: 0.10 s⁻¹
- Ki ([8]; corrected for substrate): 1.8 nM
- k/KI (kirr/KI) ([8]; 25° C., pH 6.5): 56,000,000 M^-1 sec^-1
- Ki [2]: 25 nM
- kirr [2]: 0.044 s⁻¹
- k/KI (kirr/KI) [2]: 1,770,000 M^-1 sec^-1

Compound: O=C(N[C@H](/C=C/S(=O)(=O)c1ccc2ccccc2c1)CCc1ccccc1)[C@H](Cc1ccccc1)NC(=O)N1CCOCC1 [Mu-Phe-HphVSNp, (S)-(E)-3-(4-morpholinecarbonylphenylalanyl)amino-1-(2-napthylsulfonyl)-5-phenyl-1-pentene]
- kirr [7]: 0.087 s⁻¹
- Ki ([7]; corrected for substrate): 1400 nM
- k/KI (kirr/KI) ([7]; 25° C., pH 6.2): 63,700 M^-1 sec^-1
- kobs /[I]* (approximate second-order inactivation constant) [8, 11]: > 5,400,000 M^-1 sec^-1
- Ki [2]: 110 nM
- kirr [2]: 0.08 s⁻¹
- k/KI (kirr/KI) [2]: 740,000 M^-1 sec^-1

Compound: CSCC[C@@H](/C=C/S(=O)(=O)c1ccccc1)NC(=O)[C@H](Cc1ccccc1)NC(=O)N1CCOCC1 [Mu-Phe-MetVSPh, (S)-(E)-3-(4-morpholinecarbonylphenylalanyl)amino-1-phenylsulfonyl-6-thia-1-heptene]
- k/KI (kirr/KI) ([7]; 25° C., pH 6.2): 7,000 M^-1 sec^-1
- k/KI (kirr/KI) ([1]; 25° C., pH 6.2): 250,000 M^-1 sec^-1
- k/KI (kirr/KI) ([8]; 25° C., pH 6.5): 4,000,000 M^-1 sec^-1
- k/KI (kirr/KI) [2]: 111,000 M^-1 sec^-1

Compound: CCCC[C@@H](/C=C/S(=O)(=O)c1ccccc1)NC(=O)[C@H](Cc1ccccc1)NC(=O)N1CCOCC1 [Mu-Phe-NleVSPh, (S)-(E)-3-(4-morpholinecarbonylphenylalanyl)amino-1-phenylsulfonyl-1-heptene]
- k/KI (kirr/KI) ([7]; 25° C., pH 6.2): 7,600 M^-1 sec^-1
- k/KI (kirr/KI) ([1]; 25° C., pH 6.2): 188,000 M^-1 sec^-1
- kobs /[I]* (approximate second-order inactivation constant) [8, 11]: 2,300,000 M^-1 sec^-1
- k/KI (kirr/KI) [2]: 77,000 M^-1 sec^-1

Compound: Cl.N[C@H](/C=C/S(=O)(=O)c1ccccc1)Cc1ccccc1 [Phe-VSPh, (S)-(E)-3-amino-4-phenyl-1-phenylsulfonyl-1-butene hydrochloride]
- kobs /[I]* [3]: < 50 M⁻¹ s⁻¹

Compound: (S)-(E)-3-(4-morpholinecarbonylleucylleucyl)amino-4-(4-hydroxyphenyl)-1-phenylsulfonyl-1-butene [Mu-Leu-Leu-TyrVSPh]
- kobs /[I]* (approximate second-order inactivation constant) [8, 11]: 25,100 M^-1 sec^-1
- kobs /[I]* [3]: 10,800 M^-1 sec^-1
- kobs /[I]* ([3]; listed as Mu-Leu-Leu-Tyr-VSPh): 7,600 M^-1 sec^-1

Compound: (S)-(E)-3-(4-morpholinecarbonylphenylalanyl)amino-5-methylsulfonyl-1-phenylsulfonyl-1-pentene [Mu-Phe-Met(O2)VSPh]
- kobs /[I]* (approximate second-order inactivation constant) [7, 10]: 1,600 M^-1 sec^-1
- k/KI (kirr/KI) ([1]; 25° C., pH 6.2): 250,000 M^-1 sec^-1
- k/KI (kirr/KI) ([8]; 25° C., pH 6.5): 2,800,000 M^-1 sec^-1
- k/KI (kirr/KI) [2]: 160,000 M^-1 sec^-1

Compound: (S)-(E)-3-(4-morpholinecarbonylvalyl)amino-4-phenyl-1-phenylsulfonyl-1-butene [Mu-Val-PheVSPh]
- kobs /[I]* [3]: 110 M⁻¹ s⁻¹
